Experimental data: PMC8434884 (Journal of medicinal chemistry, 2020)

Tests used:
male Sprague–Dawley rats [1] = test: WAY163909 versus saline two-lever drug discrimination assay; format: in vivo, rat
male Sprague–Dawley rats [2] = settings: previous study; cited from earlier work
[3] = molecular target: T1, human 5-HT2CR (unedited INI isoform) (Homo sapiens, UniProt P28335); settings: 1 nM, 5-HT-induced Cai2+ release, h5-HT2CR-CHO cells
T1 sequence (P28335 33-458): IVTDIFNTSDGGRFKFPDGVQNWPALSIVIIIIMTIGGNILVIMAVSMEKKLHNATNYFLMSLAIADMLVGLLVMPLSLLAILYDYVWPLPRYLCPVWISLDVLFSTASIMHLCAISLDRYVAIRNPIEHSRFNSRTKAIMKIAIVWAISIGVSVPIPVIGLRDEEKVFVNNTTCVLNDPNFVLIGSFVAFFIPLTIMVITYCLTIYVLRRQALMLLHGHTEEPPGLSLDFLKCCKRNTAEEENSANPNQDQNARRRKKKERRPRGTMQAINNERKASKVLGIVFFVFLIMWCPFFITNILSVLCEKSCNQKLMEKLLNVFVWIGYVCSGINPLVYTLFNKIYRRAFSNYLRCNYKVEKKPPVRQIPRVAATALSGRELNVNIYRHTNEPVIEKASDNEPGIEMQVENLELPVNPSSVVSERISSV

rats [4] = settings: cited from earlier work
[5] = molecular target: T1, human 5-HT2CR (unedited INI isoform); settings: cited from earlier work
rats [6] = settings: cited from earlier work; remark: listed apart in the source
α 2A = molecular target: T2, α 2A (Homo sapiens, UniProt P08913); settings: 10 μM; cited from earlier work
T2 sequence (P08913 1-465): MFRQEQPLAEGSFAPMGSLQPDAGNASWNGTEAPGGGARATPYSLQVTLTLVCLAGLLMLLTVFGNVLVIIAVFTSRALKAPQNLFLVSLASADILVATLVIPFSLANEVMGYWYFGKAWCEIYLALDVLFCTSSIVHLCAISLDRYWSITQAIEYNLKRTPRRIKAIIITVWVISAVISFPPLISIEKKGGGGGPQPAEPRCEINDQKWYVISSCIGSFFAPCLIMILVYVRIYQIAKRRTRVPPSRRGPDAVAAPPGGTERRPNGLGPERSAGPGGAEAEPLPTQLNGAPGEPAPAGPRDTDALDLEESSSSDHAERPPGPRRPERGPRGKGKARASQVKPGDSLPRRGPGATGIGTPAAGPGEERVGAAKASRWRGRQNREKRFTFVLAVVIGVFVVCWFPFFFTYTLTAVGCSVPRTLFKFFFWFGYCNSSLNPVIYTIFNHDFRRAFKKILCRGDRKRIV

α 2B = molecular target: T3, α 2B (Homo sapiens, UniProt P18089); settings: 10 μM; cited from earlier work
T3 sequence (P18089 1-450): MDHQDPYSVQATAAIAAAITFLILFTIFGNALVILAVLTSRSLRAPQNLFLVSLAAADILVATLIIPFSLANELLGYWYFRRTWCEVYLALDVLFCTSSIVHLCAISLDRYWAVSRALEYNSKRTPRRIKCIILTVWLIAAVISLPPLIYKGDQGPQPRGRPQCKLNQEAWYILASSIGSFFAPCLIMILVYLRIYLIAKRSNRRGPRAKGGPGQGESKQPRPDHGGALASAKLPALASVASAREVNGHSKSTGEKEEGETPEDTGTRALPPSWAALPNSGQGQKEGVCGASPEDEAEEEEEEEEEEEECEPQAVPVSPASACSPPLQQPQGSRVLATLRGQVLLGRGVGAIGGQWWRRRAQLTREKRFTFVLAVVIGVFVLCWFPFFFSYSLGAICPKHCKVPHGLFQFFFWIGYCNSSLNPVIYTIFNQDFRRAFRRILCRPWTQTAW

DAT = DAT (Homo sapiens, UniProt Q01959); settings: 10 μM; cited from earlier work
D3 = D3 (Homo sapiens, UniProt P35462); settings: 10 μM; cited from earlier work
Chain of D3 (P35462 whole entry): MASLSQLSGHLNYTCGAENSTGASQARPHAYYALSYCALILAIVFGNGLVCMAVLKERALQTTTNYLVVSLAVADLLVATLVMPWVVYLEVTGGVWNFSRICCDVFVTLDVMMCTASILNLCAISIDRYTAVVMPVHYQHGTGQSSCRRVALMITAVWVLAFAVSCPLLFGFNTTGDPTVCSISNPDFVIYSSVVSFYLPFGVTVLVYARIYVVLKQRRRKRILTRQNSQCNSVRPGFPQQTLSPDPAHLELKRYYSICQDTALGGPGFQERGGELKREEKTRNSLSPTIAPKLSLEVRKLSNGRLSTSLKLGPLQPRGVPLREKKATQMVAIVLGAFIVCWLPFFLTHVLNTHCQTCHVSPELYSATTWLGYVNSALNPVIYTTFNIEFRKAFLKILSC

Chain of DAT (Q01959 whole entry): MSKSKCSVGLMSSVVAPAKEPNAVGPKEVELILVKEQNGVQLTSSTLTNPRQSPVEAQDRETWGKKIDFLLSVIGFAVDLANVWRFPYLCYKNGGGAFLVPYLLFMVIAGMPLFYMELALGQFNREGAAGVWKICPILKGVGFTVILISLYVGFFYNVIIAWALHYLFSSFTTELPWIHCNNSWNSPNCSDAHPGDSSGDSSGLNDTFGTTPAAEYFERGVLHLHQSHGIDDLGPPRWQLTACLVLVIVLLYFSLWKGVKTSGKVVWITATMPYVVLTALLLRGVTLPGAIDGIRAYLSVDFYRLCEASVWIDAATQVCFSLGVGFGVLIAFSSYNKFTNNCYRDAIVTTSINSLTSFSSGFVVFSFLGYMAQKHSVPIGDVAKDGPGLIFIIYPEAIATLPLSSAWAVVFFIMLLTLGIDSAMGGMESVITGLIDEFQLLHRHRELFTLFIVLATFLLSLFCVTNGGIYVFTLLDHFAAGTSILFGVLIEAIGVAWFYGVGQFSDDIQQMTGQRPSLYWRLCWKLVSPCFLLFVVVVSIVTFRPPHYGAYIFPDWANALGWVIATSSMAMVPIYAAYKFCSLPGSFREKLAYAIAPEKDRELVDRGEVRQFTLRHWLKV

SMILES: c1cc2c3c(c1)[C@H]1CCC[C@H]1N3CCNC2 [WAY163909, (7b-R,10a-R)-1,2,3,4,8,9,10,10a-octahydro-7bH-cyclopenta[b][1,4] diazepino[6,7,1hi]indole, reference compound]
- percentage of rats selecting the WAY163909-associated lever (male Sprague–Dawley rats [1]; WAY163909 0.125 mg/kg ip, substitution test, n = 13): 0%
- dose predicted to result in 50% drug-associated responses (ED50) (male Sprague–Dawley rats [2]): 0.53 mg/kg

SMILES: O=C(NCCN1CCOCC1)[C@@H]1C[C@H](C2CCCCC2)CCN1 (racemic) [Compound 17, (2,4-cis)-4-Cyclohexyl-N-(2-morpholinoethyl)piperidine-2-carboxamide]
- 5-HT2CR positive allosteric modulator activity (in words) [3]: did not result in positive allosteric effects

SMILES: CCCCCCCCCCC[C@@H]1CCN[C@H](C(=O)NCC(O)CO)C1 (stereo partly drawn) [Compound 3]
- effect on locomotor activity (rats [4]): decrease locomotor activity
- Emax RFU (% 5-HT) ([5]; compound 1 nM, 5-HT-induced Cai2+ release, h5-HT2CR-CHO cells): 123.2 ± 4.1 % 5-HT
- effect on Cai2+ release in the absence of 5-HT ([5]; h5-HT2CR-CHO cells): no effect on Cai^2+ release
- effect on cocaine-seeking during abstinence from cocaine self-administration (rats [6]): suppress cocaine-seeking
- inhibition of radioligand binding (α 2A): 85.1%
- inhibition of radioligand binding (α 2B): 80.7%
- inhibition of radioligand binding (DAT): 66.3%
- inhibition of radioligand binding (D3): 71.7%

SMILES: O=C(NCCCN1CCOCC1)[C@@H]1C[C@H](CCC2CCCCC2)CCN1 (racemic) [Compound 35, (2,4-cis)-4-(2-Cyclohexylethyl)-N-(3-morpholinopropyl)-piperidine-2-carboxamide]
- 5-HT2CR positive allosteric modulator activity (in words) [3]: did produce PAM effects

SMILES: O=C(NC(CO)C(O)c1ccccc1)C1C[C@@H](c2ccccc2)CCN1 (stereo in doubt) [Compound (2R,4S)-11, (2S,4S)-N-((1S,2S)-1,3-Dihydroxy-1-phenylpropan-2-yl)-4-phenylpiperidine-2-carboxamide]
- 5-HT2CR positive allosteric modulator activity (in words) [3]: modest allosteric activity

SMILES: Cc1cc2c(cc1Cl)N(C(=O)Nc1ccc(Oc3cccnc3C)nc1)CC2.Cl.Cl [SB242084, 6-chloro-5-methyl-1-[[2-(2-methylpyrid-3-yloxy)pyrid-5-yl]carbamoyl]indoline dihydrochloride, reference compound]
- blockade of substitution of 12 (2 mg/kg) plus WAY163909 (0.5 mg/kg) (male Sprague–Dawley rats [1]; SB242084 0.5 mg/kg pretreatment, 13/13 rats): completely prevented the substitution

SMILES: O=C(NCCN1CCOCC1)[C@@H]1C[C@H](c2ccccc2)CCN1 (racemic) [Compound 16, (2,4-cis)-N-(2-Morpholinoethyl)-4-phenylpiperidine-2-carboxamide]
- 5-HT2CR positive allosteric modulator activity (in words) [3]: did not result in positive allosteric effects

SMILES: O=C(NCCN1CCOCC1)[C@@H]1C[C@H](CCc2ccccc2)CCN1 (racemic) [Compound 36, (2,4-cis)-N-(2-Morpholinoethyl)-4-phenethylpiperidine-2-carboxamide]
- 5-HT2CR positive allosteric modulator activity (in words) [3]: did not produce PAM effects

SMILES: O=C(NC(CO)CO)[C@@H]1C[C@H](c2ccccc2)CCN1 (racemic) [Compound 14, (2,4-cis)-N-(1,3-Dihydroxypropan-2-yl)-4-phenylpiperidine-2-carboxamide]
- 5-HT2CR positive allosteric modulator activity (in words) [3]: did promote PAM activity

SMILES: O=C(NCCN1CCOCC1)[C@@H]1C[C@H](CCC2CCCCC2)CCN1 (racemic) [Compound 34, (2,4-cis)-4-(2-Cyclohexylethyl)-N-(2-morpholinoethyl)piperidine-2-carboxamide]
- 5-HT2CR positive allosteric modulator activity (in words) [3]: did not produce PAM effects

SMILES: O=C(NC(CO)CO)[C@@H]1C[C@H](C2CCCCC2)CCN1 (racemic) [Compound 15, (2,4-cis)-4-Cyclohexyl-N-(1,3-dihydroxypropan-2-yl)piperidine-2-carboxamide]
- 5-HT2CR positive allosteric modulator activity (in words) [3]: did not result in positive allosteric effects

SMILES: CCCCCCCCCCC[C@@H]1CCN[C@H](C(=O)N[C@@H]([C@H]2O[C@H](SC)[C@H](O)[C@@H](O)[C@H]2O)[C@H](C)Cl)C1.Cl [Compound 1]
- shift of the 5-HT-evoked Cai2+ response curve ([5]; titration studies): evoked a leftward shift

SMILES: O=C(NCCCN1CCOCC1)[C@@H]1C[C@H](CCc2ccccc2)CCN1 (racemic) [Compound 37, (2,4-cis)-N-(3-Morpholinopropyl)-4-phenethylpiperidine-2-carboxamide]
- 5-HT2CR positive allosteric modulator activity (in words) [3]: did produce PAM effects
